Assay results as given in patent US20200405697A1, “Antitumor Agent” (Taiho Pharmaceutical Co., Ltd, priority 2017, published 2020).
pIC50: −log10 of the molar value.

Molecular target: T1, human RNR (histidine tagged human M1 and human M2 proteins) (Homo sapiens, UniProt P23921)
T1 construct: made in house; host or cells: Escherichia coli
T1 sequence (P23921 1-792): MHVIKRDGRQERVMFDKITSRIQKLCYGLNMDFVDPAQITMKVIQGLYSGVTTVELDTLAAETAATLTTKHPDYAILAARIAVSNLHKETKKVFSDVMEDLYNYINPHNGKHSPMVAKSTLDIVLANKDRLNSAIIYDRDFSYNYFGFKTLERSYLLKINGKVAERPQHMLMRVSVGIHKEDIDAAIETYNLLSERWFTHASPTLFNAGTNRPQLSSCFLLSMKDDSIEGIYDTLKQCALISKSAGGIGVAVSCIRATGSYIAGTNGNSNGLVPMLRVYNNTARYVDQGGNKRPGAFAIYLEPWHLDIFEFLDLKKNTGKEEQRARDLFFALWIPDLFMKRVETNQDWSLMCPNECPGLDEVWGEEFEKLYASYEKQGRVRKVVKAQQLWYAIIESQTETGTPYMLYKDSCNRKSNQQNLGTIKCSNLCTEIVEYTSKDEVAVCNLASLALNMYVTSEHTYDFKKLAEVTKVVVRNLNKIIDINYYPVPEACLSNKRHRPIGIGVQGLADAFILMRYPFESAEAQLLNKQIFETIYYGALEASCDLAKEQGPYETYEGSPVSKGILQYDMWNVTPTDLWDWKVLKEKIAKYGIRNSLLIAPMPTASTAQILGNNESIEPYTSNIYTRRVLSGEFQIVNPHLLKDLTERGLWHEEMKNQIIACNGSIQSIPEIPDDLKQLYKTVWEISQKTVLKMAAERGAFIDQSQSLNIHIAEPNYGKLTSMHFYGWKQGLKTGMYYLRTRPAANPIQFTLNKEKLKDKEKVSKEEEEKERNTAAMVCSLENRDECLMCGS
Assay: Human RNR inhibition effect (dCDP formation from CDP)
Format: biochemical
Settings: 10 μM CDP, 37° C. for 30 minutes, read-out: RNR inhibitory activity IC50
Procedure, shortened: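 His-tagged human M1 (isoform 1) and N-terminal 59-aa-truncated M2 (isoform 2), E. coli-expressed, Ni-purified, preincubated 20 min with compound (1% DMSO). Reaction with 10 μM CDP, 2 mM ATP, 0.24 mM NADPH, 6 mM DTT, 4 mM Mg acetate, 100 mM KCl, 50 mM HEPES pH 7.2, 30 min at 37° C. dCDP formed quantified by reverse-phase HPLC after heat stop.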

| SMILES | pIC50 |
| --- | --- |
| Cc1ccc(S(=O)(=O)N[C@H](c2n[nH]c(=O)o2)[C@H](C)c2c(F)ccc(C)c2C)cc1S(=O)(=O)N1CCCCC1 [Example 171, N-((1S,2R)-2-(6-fluoro-2,3-dimethylphenyl)-1-(5-oxo-4,5-dihydro-1,3,4-oxadiazol-2-yl)propyl)-4-methyl-3-(piperidin-1-ylsulfonyl)benzenesulfonamide] | 6.33 |
| C[C@H](c1cccc2c1CCC2)[C@H](NS(=O)(=O)c1ccc(Br)cc1F)c1n[nH]c(=O)o1 [Example 60, 4-bromo-N-((1S,2R)-2-(2,3-dihydro-1H-inden-4-yl)-1-(5-oxo-4,5-dihydro-1,3,4-oxadiazol-2-yl)propyl)-2-fluorobenzenesulfonamide] | 6.00 |
| Cc1ccc(F)c([C@@H](C)[C@H](NS(=O)(=O)c2ccc3c(c2)C(=O)CCO3)c2n[nH]c(=O)o2)c1C [Example 179, N-((1S,2R)-2-(6-fluoro-2,3-dimethylphenyl)-1-(5-oxo-4,5-dihydro-1,3,4-oxadiazol-2-yl)propyl)-4-oxochroman-6-sulfonamide] | 6.55 |
| Cc1ccc(S(=O)(=O)N[C@H](c2n[nH]c(=O)o2)[C@H](C)c2c(F)ccc3ccccc23)c(C(N)=O)c1 [Example 12, 2-(N-((1S,2R)-2-(2-Fluoronaphthalen-1-yl)-1-(5-oxo-4,5-dihydro-1,3,4-oxadiazol-2-yl)propyl)sulfamoyl)-5-methylbenzamide] | 6.77 |
| CCc1ccc(S(=O)(=O)N[C@H](c2n[nH]c(=O)o2)[C@H](C)c2c(F)ccc(C)c2C)c(C(N)=O)c1 [Example 18, 5-Ethyl-2-(N-((1S,2R)-2-(6-fluoro-2,3-dimethylphenyl)-1-(5-oxo-4,5-dihydro-1,3,4-oxadiazol-2-yl)propyl)sulfamoyl)benzamide] | 6.89 |
| Cc1c(Br)ccc(F)c1[C@@H](C)[C@H](NS(=O)(=O)c1ccc(F)c2c1OCCC2(C)O)c1n[nH]c(=O)o1 (single isomer, unassigned) [Example 227B] | 7.05 |
| Cc1ccc(S(=O)(=O)N[C@H](c2n[nH]c(=O)o2)[C@H](C)c2c(F)ccc(C)c2C)cc1 [Example 151, N-((1S,2R)-2-(6-fluoro-2,3-dimethylphenyl)-1-(5-oxo-4,5-dihydro-1,3,4-oxadiazol-2-yl)propyl)-4-methylbenzenesulfonamide] | 6.39 |
| C[C@H](c1cccc2c1CCC2)[C@H](NS(=O)(=O)c1ccc(F)c(C(C)(C)O)c1F)c1n[nH]c(=O)o1 [Example 189, N-((1S,2R)-2-(2,3-dihydro-1H-inden-4-yl)-1-(5-oxo-4,5-dihydro-1,3,4-oxadiazol-2-yl)propyl)-2,4-difluoro-3-(2-hydroxypropan-2-yl)benzenesulfonamide] | 6.26 |
| Cc1c(Br)ccc(F)c1[C@@H](C)[C@H](NS(=O)(=O)c1ccc(Cl)c2c1OCCC2(C)O)c1n[nH]c(=O)o1 (single isomer, unassigned) [Example 222B] | 7.22 |
| COc1cc(Cl)ccc1S(=O)(=O)N[C@H](c1n[nH]c(=O)o1)[C@H](C)c1cccc2cccc(C)c12 [Example 71, 4-chloro-2-methoxy-N-((1S,2R)-2-(8-methylnaphthalen-1-yl)-1-(5-oxo-4,5-dihydro-1,3,4-oxadiazol-2-yl)propyl)benzenesulfonamide] | 6.62 |
| [2H]C([2H])([2H])C1(OC(C)=O)CCOc2c(S(=O)(=O)N[C@H](c3n[nH]c(=O)o3)[C@H](C)c3c(F)ccc(C)c3C)ccc(Cl)c21 (stereo partly drawn) [Example 129, 5-Chloro-8-(N-((1S,2R)-2-(6-fluoro-2,3-dimethylphenyl)-1-(5-oxo-4,5-dihydro-1,3,4-oxadiazol-2-yl)propyl)sulfamoyl)-4-methyl-d3-chroman-4-yl Acetate] | 7.00 |
| COc1c(S(=O)(=O)N[C@H](c2n[nH]c(=O)o2)[C@H](C)c2c(F)ccc(C)c2C)ncc(Cl)c1C(C)OC(C)=O (stereo partly drawn) [Example 120, 1-(5-chloro-2-(N-((1S,2R)-2-(6-fluoro-2,3-dimethylphenyl)-1-(5-oxo-4,5-dihydro-1,3,4-oxadiazol-2-yl)propyl)sulfamoyl)-3-methoxypyridin-4-yl)ethylacetate] | 6.37 |
| Cc1ccc(F)c([C@@H](C)[C@H](NS(=O)(=O)c2ccc(Cl)c(C(=O)N3C4CCC3COC4)n2)c2n[nH]c(=O)o2)c1C [Example 116, 6-(3-oxa-8-azabicyclo[3.2.1]octane-8-carbonyl)-5-chloro-N-((1S,2R)-2-(6-fluoro-2,3-dimethylphenyl)-1-(5-oxo-4,5-dihydro-1,3,4-oxadiazol-2-yl)propyl)pyridine-2-sulfonamide] | 7.15 |
| Cc1ccc(S(=O)(=O)N[C@H](c2n[nH]c(=O)o2)[C@H](C)c2c(F)ccc(C)c2C)c(C(N)=O)c1 [Example 10, 2-(N-((1S,2R)-2-(3-6-fluoro-2,3-dimethylphenyl)-1-(5-oxo-4,5-dihydro-1,3,4-oxadiazol-2-yl)propyl)sulfamoyl)-5-methylbenzamide] | 6.85 |
| C[C@H](c1c(F)ccc2ccccc12)[C@H](NS(=O)(=O)c1ccc(Cl)c2c1OCCC2O)c1n[nH]c(=O)o1 (single isomer, unassigned) [Example 234A] | 6.51 |

More lines, now with the values ahead:

| pIC50 | SMILES |
| --- | --- |
| 7.22 | Cc1c(Br)ccc(F)c1[C@@H](C)[C@H](NS(=O)(=O)c1ncc(Cl)cc1C(N)=O)c1n[nH]c(=O)o1 [Example 264, 2-(N-((1S,2R)-2-(3-bromo-6-fluoro-2-methylphenyl)-1-(5-oxo-4,5-dihydro-1,3,4-oxadiazol-2-yl)propyl)sulfamoyl)-5-chloronicotinamide] |
| 6.64 | Cc1ccc(F)c([C@@H](C)[C@H](NS(=O)(=O)c2c(F)cc(F)c3c2OCCC3O)c2n[nH]c(=O)o2)c1C (stereo partly drawn) [Example 242, 5,7-difluoro-N-((1S,2R)-2-(6-fluoro-2,3-dimethylphenyl)-1-(5-oxo-4,5-dihydro-1,3,4-oxadiazol-2-yl)propyl)-4-hydroxychroman-8-sulfonamide] |
| 6.31 | COc1cc(Cl)ccc1S(=O)(=O)N[C@H](c1n[nH]c(=O)o1)[C@H](C)c1c(F)ccc(-c2ccc(Cl)cc2)c1C [Example 302, 4-chloro-N-((1S,2R)-2-(4′-chloro-4-fluoro-2-methyl-[1,1′-biphenyl]-3-yl)-1-(5-oxo-4,5-dihydro-1,3,4-oxadiazol-2-yl)propyl)-2-methoxybenzenesulfonamide] |
| 6.51 | COC(=O)c1c(Cl)ccc(S(=O)(=O)N[C@H](c2n[nH]c(=S)o2)[C@H](C)c2cccc3c2CCC3)c1Cl [Example 333, methyl 2,6-dichloro-3-(N-((1S,2R)-2-(2,3-dihydro-1H-inden-4-yl)-1-(5-thioxo-4,5-dihydro-1,3,4-oxadiazol-2-yl)propyl)sulfamoyl)benzoate] |
| 6.39 | Cc1ccc(F)c([C@@H](C)[C@H](NS(=O)(=O)c2ccc(Cl)cc2C(=O)N2CCC2)c2n[nH]c(=O)o2)c1C [Example 247, 2-(azetidine-1-carbonyl)-4-chloro-N-((1S,2R)-2-(6-fluoro-2,3-dimethylphenyl)-1-(5-oxo-4,5-dihydro-1,3,4-oxadiazol-2-yl)propyl)benzenesulfonamide] |
| 6.30 | Cc1ccc(F)c([C@@H](C)[C@H](NS(=O)(=O)c2ccc(Cl)cc2C(=O)N(C)C)c2n[nH]c(=O)o2)c1C [Example 246, 5-chloro-2-(N-((1S,2R)-2-(6-fluoro-2,3-dimethylphenyl)-1-(5-oxo-4,5-dihydro-1,3,4-oxadiazol-2-yl)propyl)sulfamoyl)-N,N-dimethylbenzamide] |
| 6.57 | Cc1ccc(F)c([C@@H](C)[C@H](NS(=O)(=O)c2ccc([N+](=O)[O-])cc2)c2n[nH]c(=O)o2)c1C [Example 340, N-((1S,2R)-(6-fluoro-2,3-dimethylphenyl)-1-(5-oxo-4,5-dihydro-1,3,4-oxadiazol-2-yl)propyl)-4-nitrobenzenesulfonamide] |
| 6.27 | COc1cc(Cl)ccc1S(=O)(=O)N[C@H](c1n[nH]c(=O)o1)[C@H](C)c1c(F)ccc(-c2cncnc2)c1C [Example 318, 4-chloro-N-((1S,2R)-2-(6-fluoro-2-methyl-3-(pyrimidin-5-yl)phenyl)-1-(5-oxo-4,5-dihydro-1,3,4-oxadiazol-2-yl)propyl)-2-methoxybenzenesulfonamide] |
| 6.14 | COc1cc(N)ccc1S(=O)(=O)N[C@H](c1n[nH]c(=O)o1)[C@H](C)c1cccc2c1CCC2 [Example 270, 4-amino-N-((1S,2R)-2-(2,3-dihydro-1H-inden-4-yl)-1-(5-oxo-4,5-dihydro-1,3,4-oxadiazol-2-yl)propyl)-2-methoxybenzenesulfonamide] |
| 6.57 | Cc1ccc(F)c([C@@H](C)[C@H](NS(=O)(=O)c2ccc(Cl)cc2C(=O)NCCO)c2n[nH]c(=O)o2)c1C [Example 248, 5-chloro-2-(N-((1S,2R)-2-(6-fluoro-2,3-dimethylphenyl)-1-(5-oxo-4,5-dihydro-1,3,4-oxadiazol-2-yl)propyl)sulfamoyl)-N-(2-hydroxyethyl)benzamide] |
